Values quoted from earlier work in patent US20230414620A1, “TOPICAL RUXOLITINIB FOR TREATING LICHEN PLANUS” (Incyte Corporation, priority 2020, published 2023).

Tests used:
[1] = tested on: steroid refractory graft versus host disease (GVHD); settings: systemic JAK1, 2 inhibition
[2] = tested on: refractory dermatomyositis (DM); settings: case report

N#CC[C@H](C1CCCC1)n1cc(-c2ncnc3[nH]ccc23)cn1 [ruxolitinib, (R)-3-(4-(7H-pyrrolo[2,3-d]pyrimidin-4-yl)-1H-pyrazol-1-yl)-3-cyclopentylpropanenitrile]
efficacy in steroid refractory GVHD [1]: highly effective | response in refractory dermatomyositis [2]: exceptional responder
